Test results published in patent US6420362B1, “Azines containing the 5,6-di-hydro-(1,4,2) dioxazine-3-yl group and the use thereof as fungicides” (priority 1997, dated 2002).

Assay: log P determination by HPLC (EEC Directive 79/831 Annex V. A8)
Format: physicochemical
Procedure: The log P values were determined in accordance with EEC Directive 79/831 Annex V. A8 by HPLC (gradient method, acetonitrile/0.1% strength aqueous phosphoric acid).

Compound	chromatographic logP
CON=C(C1=NOCCO1)c1ccccc1C=NN=C(C)c1ccc(C(F)(F)F)cc1 [Example 2, (5,6-dihydro-[1,4,2]dioxazin-3-yl)-(2-{[1-(4-trifluoromethylphenyl)-ethylidene]-hydrazonomethyl}-phenyl)-methanone O-methyl oxime]	3.8
CON=C(C)C(C)=NN=Cc1ccccc1C(=NOC)C1=NOCCO1 [Example 4, 3-({2-[(5,6-dihydro-[1,4,2]dioxazin-3-yl)-methoxyimino-methyl]-benzylidene}-hydrazono)-butan-2-one O-methyl oxime]	3.17
CON=C(C(C)=NN=Cc1ccccc1/C(=N/OC)C1=NOCCO1)C(C)C [Example 12]	3.92
CON=C(C1=NOCCO1)c1ccccc1C=NN=C(C)c1cccc(C(F)(F)F)c1 [Example 1, (5,6-dihydro-[1,4,2]dioxazin-3-yl)-(2-{[1-(3-trifluoromethylphenyl)-ethylidene]-hydrazonomethyl}-phenyl)-methanone O-methyl oxime]	3.8
CCC(=NOC)C(C)=NN=Cc1ccccc1/C(=N/OC)C1=NOCCO1 [Example 13]	3.58
CCON=C(C)C(C)=NN=Cc1ccccc1C(=NOC)C1=NOCCO1 [Example 17]	3.61
